The record followed here is patent US20240156832A1, “METHODS OF METABOLIZING METOPIMAZINE AND ITS SALTS” (Neurogastrx, Inc., priority 2020, published 2024).

Series [1] concerns microsomal FMOs in HLM. The series can be described thus: Incubation with HLM for FMO (pH 8.4, methimazole, heat). Particulars: 1 and 10 μM MPZ, NADPH, with and without methimazole, heat-pretreated control. It counts as in vitro ADME, human. The method, then:
MPZ, at 1.0 and 10.0 μM, was incubated with HLM or HKM to determine the contribution of microsomal FMOs on the metabolism of MPZ.
A reaction mixture containing KPi buffer (pH 8.4), HLM or HKM (0.5 mg/mL protein) and MPZ (1.0 and 10.0 μM) was pre-incubated for 3-5 minutes at 37° C. The reaction was initiated by the addition of NADPH into the reaction mixture. Reaction was conducted for 0 and 60 min. A positive control (benzydamine, 100 μM) was incubated in duplicate for 0 and 20 minutes. Parallel incubation was conducted by adding 1 mM methimazole, a non-specific FMO inhibitor, under identical conditions. Heat inactivated microsomes (50° C. for at least 5 minutes) was incubated under identical conditions negative control. All other procedures were the same as described previously.

Series [2] relates to other CYP enzymes. Nature of the series: Incubation with the other recombinant CYP isoforms. It counts as in vitro ADME, human. Particulars: 1 μM MPZ, 60 min. An excerpt:
All other procedures were the same as described previously.

For series [3] the following is noted: both, human, in vivo, po, 60 mg. The method, then: The clinical study was conducted at Biotrial Rennes (Rennes, France), in accordance with the Declaration of Helsinki. The study (NG100-101) was a double-blind, placebo-controlled, ascending single- and multiple-dose study of the safety, tolerability, and pharmacokinetics of metopimazine administered orally to healthy adult subjects. The study protocol, informed consent form, and appropriate related documents were approved by the institutional review board, and all subjects provided written informed consent prior to participation in the study.
In this study, sequential ascending single doses were administered to 4 cohorts of 8 participants (6 actives and 2 placebos per cohort, in cohorts 1, 2 and 3 following a randomization 6:2 and in cohort 4 with a 1:1 randomization for the two sentinel participants. In the morning, after at least 10 hours of fasting overnight, eight healthy adult subjects (male or female aged 18 to 45), were orally administered metopimazine (or a matching placebo). Cohort 1-4 received a matching placebo or ascending doses of Vogalene (metopimazine) capsules at the doses of 15 mg, 30 mg, 45 mg, or 60 mg, respectively. […] Plasma concentrations of metopimazine, metopimazine acid and metopimazine sulfoxide were quantified using LC-MS/MS methods. […]

Molecules are shown by their SMILES.

For `CS(=O)(=O)c1ccc2c(c1)N(CCCN1CCC(C(=O)O)CC1)c1ccccc1S2` [MPZA, metopimazine acid], in series [1], the “MPZA formation in HLM at pH 8.4” value is listed as “Considerable formation of MPZA was observed with all conditions”. Take `CS(=O)(=O)c1ccc2c(c1)N(CCCN1CCC(C(N)=O)CC1)c1ccccc1S2` [MPZ, metopimazine]: the “contribution of other CYP enzymes to MPZ metabolism” value in series [2] is on record as “None of the other CYP enzymes appeared to have significant contribution”. For the same compound, in series [3], the Tmax (in general, the time from dosing to the highest level) is 3 h.
